Among the test systems are MDA-MB-435; SNB-75 CNS; COLO 205 colon; EKVX NSCLC; SK-MEL-5 melanoma; OVCAR-4 ovarian; A498 renal; MOLT-4 leukemia; SF-539 CNS; UO-31 renal; HCC-2998 colon; DU-145 prostate; NCI-H226 lung; ACHN renal; PC-3 prostate; M14 melanoma; SK-MEL-2 melanoma; SW-620 colon; SR leukemia.
Assay in all cases: NCI-60 cell line screen, 48 h

SMILES strings stand for the structures.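 Briefly, cells in 96-well plates were exposed to five compound concentrations for 48 h, and endpoints were estimated by linear interpolation. Definition used: TGI = concentration required for complete inhibition of growth.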 Some results are limits rather than exact numbers.

For the compound `Oc1ccccc1-c1nn2c(CCCCCCCCc3nnc4sc(-c5ccccc5O)nn34)nnc2s1`, the TGI with MDA-MB-435 is > 100 µM; in the assay with SNB-75 CNS it was > 86.1 µM; in the assay with COLO 205 colon it was > 100 µM; in the assay on EKVX NSCLC it was > 88.9 µM; with SK-MEL-5 melanoma, 64.8 µM; with OVCAR-4 ovarian, > 100 µM. For the same compound, the TGI in the assay with A498 renal is > 89 µM; in the assay on MOLT-4 leukemia, 51.1 µM; in the assay on SF-539 CNS it was > 66.6 µM; in the assay with UO-31 renal, 48.5 µM; in the assay with HCC-2998 colon, > 100 µM; in the assay with DU-145 prostate, > 75.5 µM. In addition, the TGI in the assay on NCI-H226 lung was > 100 µM; in the assay with ACHN renal, > 100 µM; in the assay on PC-3 prostate, > 100 µM; in the assay on M14 melanoma, > 77.7 µM; with SK-MEL-2 melanoma it was > 67.5 µM; in the assay with SW-620 colon, > 100 µM. Further, the TGI in the assay on SR leukemia is > 48.7 µM.

In the case of `COc1ccc(-c2cc(-c3ccccc3)nc3c2CC(=O)Nc2ccccc2-3)cc1OC`, the TGI was > 100 µM in the assay with MDA-MB-435; 2.67 µM in the assay on SNB-75 CNS; > 100 µM in the assay with COLO 205 colon; > 100 µM with EKVX NSCLC; > 100 µM with SK-MEL-5 melanoma; > 100 µM in the assay with OVCAR-4 ovarian. Moreover, the TGI is 50.5 µM with A498 renal; > 100 µM in the assay on MOLT-4 leukemia; > 46.1 µM with SF-539 CNS; > 100 µM in the assay on UO-31 renal; > 100 µM in the assay on HCC-2998 colon; > 100 µM in the assay with DU-145 prostate. Moreover, the TGI in the assay on NCI-H226 lung, in the assay on ACHN renal, in the assay with PC-3 prostate, in the assay on M14 melanoma, in the assay on SK-MEL-2 melanoma and in the assay with SW-620 colon was > 100 µM in each case. Also, in the assay with SR leukemia, the TGI was > 100 µM.

With `CNc1nc2c(C)ccc3[nH]c(N(C)C)nc3c-2n1`, the TGI in the assay with MDA-MB-435 was > 100 µM; with SNB-75 CNS, > 100 µM; in the assay on COLO 205 colon, > 100 µM; with EKVX NSCLC it was > 100 µM; with SK-MEL-5 melanoma it was 50.3 µM; with OVCAR-4 ovarian, 80.9 µM. Also, the TGI with A498 renal is > 100 µM; with MOLT-4 leukemia, > 100 µM; with SF-539 CNS it was 64.5 µM; in the assay with UO-31 renal, > 100 µM; in the assay with HCC-2998 colon, > 100 µM; with DU-145 prostate, > 100 µM. The TGI in the assay on NCI-H226 lung was > 100 µM; with ACHN renal, 76.8 µM; with PC-3 prostate, > 100 µM; in the assay with M14 melanoma, 51.1 µM; in the assay on SK-MEL-2 melanoma it was > 100 µM; in the assay on SW-620 colon, > 100 µM. In addition, the TGI in the assay with SR leukemia stood at 97.9 µM.

Regarding `CSc1ccc2c(cc1=O)[C@@H](NC(=O)c1ccc([N+](=O)[O-])cc1)CCc1cc(O)c(O)c(O)c1-2`, the TGI was > 100 µM in the assay on MDA-MB-435; > 100 µM with SNB-75 CNS; 53.7 µM in the assay on COLO 205 colon; > 100 µM in the assay with EKVX NSCLC; 53.1 µM with SK-MEL-5 melanoma; > 100 µM in the assay on OVCAR-4 ovarian. For the same compound, the TGI in the assay on A498 renal, in the assay on MOLT-4 leukemia, in the assay with SF-539 CNS, in the assay with UO-31 renal, in the assay on HCC-2998 colon and in the assay on DU-145 prostate was > 100 µM each time. In addition, the TGI with NCI-H226 lung, in the assay on ACHN renal, in the assay on PC-3 prostate, in the assay with M14 melanoma, in the assay on SK-MEL-2 melanoma and with SW-620 colon was > 100 µM each time. The TGI in the assay with SR leukemia is > 100 µM.

As to `NC(=O)C1CCCN1C(=O)N(CCCl)N=O` (configuration not stated), the TGI with MDA-MB-435 is > 100 µM; in the assay with SNB-75 CNS, 72.8 µM; in the assay with COLO 205 colon, > 100 µM; with EKVX NSCLC, > 100 µM; in the assay on SK-MEL-5 melanoma it was > 100 µM; with OVCAR-4 ovarian, > 100 µM. Also, the TGI in the assay with A498 renal, with MOLT-4 leukemia, in the assay with SF-539 CNS, in the assay with UO-31 renal, in the assay on HCC-2998 colon and in the assay on DU-145 prostate was > 100 µM in each case. The TGI with NCI-H226 lung, in the assay with ACHN renal, in the assay on PC-3 prostate, with M14 melanoma, with SK-MEL-2 melanoma and in the assay with SW-620 colon was > 100 µM in each case. In the assay on SR leukemia, the TGI is > 100 µM.

For the compound `COc1ccc(N(C(=O)NCCO)c2ccccc2)cc1`, the TGI with MDA-MB-435, in the assay with SNB-75 CNS, in the assay on COLO 205 colon, in the assay with EKVX NSCLC, in the assay with SK-MEL-5 melanoma and with OVCAR-4 ovarian was > 100 µM throughout. Also, the TGI in the assay with A498 renal, with MOLT-4 leukemia, with SF-539 CNS, in the assay on UO-31 renal, with HCC-2998 colon and with DU-145 prostate was > 100 µM throughout. Also, the TGI with NCI-H226 lung, in the assay with ACHN renal, with PC-3 prostate, with M14 melanoma, in the assay on SK-MEL-2 melanoma and in the assay with SW-620 colon was > 100 µM in each case. In the assay with SR leukemia, the TGI is > 100 µM.

As for `O=[p+]1c2ccccc2[nH]c2ccccc21`, the TGI with MDA-MB-435, in the assay with SNB-75 CNS, in the assay on COLO 205 colon, in the assay with EKVX NSCLC, in the assay with SK-MEL-5 melanoma and in the assay with OVCAR-4 ovarian was > 100 µM each time. Further, the TGI in the assay with A498 renal, in the assay with MOLT-4 leukemia, in the assay with SF-539 CNS, in the assay with HCC-2998 colon, in the assay on DU-145 prostate and with NCI-H226 lung was > 100 µM in each case. Also, the TGI with ACHN renal, in the assay on PC-3 prostate, with M14 melanoma, in the assay with SK-MEL-2 melanoma, in the assay with SW-620 colon and in the assay with SR leukemia was > 100 µM in each case.

For the origin of these results see PubChem BioAssay (NCI).
